Reference: BigSolDB 2.1

NCCCCCCN
solubility (mole fraction)
Conditions	in 1,4-dioxane	in cyclohexane	in isobutanol	in n-butanol	in n-hexane	in n-propanol	in toluene
278.15 K	–	0.0071	0.193	0.35	0.0103	0.315	0.132
283.15 K	0.135	0.0092	0.236	0.389	0.0149	0.354	0.161
288.15 K	0.194	0.0126	0.288	0.448	0.018	0.391	0.209
293.15 K	0.267	0.0187	0.351	0.508	0.0268	0.431	0.259
298.15 K	0.348	0.0309	0.427	0.584	0.0449	0.485	0.334
303.15 K	0.467	0.053	0.521	0.652	0.0729	0.552	0.434
